In patent US9963498B2, “Peptides that inhibit syndecan-1 activation of VLA-4 and IGF-1R” (Wisconsin Alumni Research Foundation, priority 2016, dated 2018):
“Also recorded” adds a separate entry of the source. Where no end group is shown, it is not given here.

What was measured:
[1] = SSTN stability assay in mouse serum; type: in vitro ADME; conditions: for stability in serum (in words): mouse (rodent) serum, up to 72 hr; for stability in serum (in words) / stability (activity retained): 37° C.; for stability (activity retained): mouse serum, 3 days (SSTNIGF1R: more than 3 days)
Protocol: FIG. 16. SSTNI/V IS STABLE IN RODENT SERUM, EQUIVALENT TO SSTNIGF1R AND SSTNVLA4. SSTNI/V, SSTNIGF1R and SSTNVLA4 were incubated at 37° C. for up to 72 hr in mouse serum. Note that rodent serum is known to contain substantial proteolytic activity against peptides. A GRGDSP integrin-inhibitory peptide was used as control, tested against endothelial cell adhesion to fibronectin. Either myeloma cell viability, or endothelial cell adhesion to IIICS fragment was used to test the activity of the SSTN peptides. SSTN peptides were used at up to 30 μM, and the GRGDSP peptide was used up to 1 mM. Activity observed in the assays was plotted against a standard curve to determine relative activity.
(§1) For stability assays, SSTNIGF1R, SSTNVLA4, SSTNI/V and GRGDSP peptide (SEQ ID NO:31; EMD Millipore) were incubated in human plasma (obtained from the UW-Madison Hospital Blood Bank) for 0, 8, 24 or 72 hr, then tested in the endothelial cell adhesion assay or cell viability assay and compared to a standard curve generated using fresh peptide.

[2] = SSTN stability assay in human plasma; type: in vitro ADME; conditions: more than 3 days at 37° C.
Protocol: as §1

[3] = SSTN stability in bovine serum; type: in vitro ADME; conditions: more than 3 days at 37° C.
[4] = test system: M21 murine melanoma cells; test: Melanoma cell invasion through filters coated with fibronectin; type: cell-based, mouse; conditions: 16 hr, 30 μM peptide
Protocol: FIG. 17. […] M21 murine melanoma cells are allowed to migrate for 16 hr through filters coated with fibronectin. The relative roles of the αvβ3 integrin and the α4β1 integrin (VLA-4) are determined using blocking antibodies to αv and α4 integrin subunits, or both antibodies combined.

[5] = test system: B78 murine melanoma cells; test: Melanoma cell survival (trypan blue exclusion); type: cell-based, mouse; conditions: up to 72 hr, 30 μM
Protocol: FIG. 18. SSTNI/V BLOCKS SURVIVAL OF MOUSE MELANOMA CELLS. B78 murine melanoma cells grown in serum-containing DMEM are incubated for up to 72 hr in 30 μM SSTNVLA4, SSTNIGF1R or SSTNI/V, then viable cells were quantified by trypan blue exclusion.
All cells were cultured at 37° C. and 92.5% air/7.5% CO2. The derivation and culture of CAG myeloma and HMEC-1 cells are described previously (Ades et al. 1992, Rapraeger et al. 2013). B78 murine melanoma cells were kindly provided by Dr. Sondel, Department of Pediatrics, University of Wisconsin-Madison. All cells are routinely screened for mycoplasma contamination. For viability studies, 2.5×10^4 myeloma cells/well or 10^4 B78 murine melanoma cells were plated in 96-well plates in complete DMEM containing 10% calf serum in the presence or absence of SSTN peptides for 24, 48 or 72 hrs. Numbers of viable cells were then determined by addition of CellTiter-GLO reagent to the culture medium as described by the manufacturer and viable cells determined by staining with 0.4% trypan blue and counting cells that exclude (viable) or take up (dead) the stain.

[6] = Beauvais et al., 2016; plasma species not printed at the place; cited from earlier work
[7] = Beauvais et al., 2016; cited from earlier work
[8] = test system: CAG myeloma tumor xenografts; conditions: nude mice, Alzet pumps 0.365 mg/kg/day, 4 weeks; modified from Beauvais et al. 2016; cited from earlier work
[9] = test system: Apoptosis signal regulating kinase-1 (ASK1); conditions: CAG or MM.1R myeloma cells, 6 hr, 10 μM; modified from Beauvais et al. 2016; cited from earlier work
[10] = test system: UM-SCC47, SCC25, MDA-MB-468, MDA-MB-231, MCF-7 and SKBr3 carcinoma cells; conditions: 3, 10 or 30 μM, 3 days; Beauvais et al. 2016; cited from earlier work
[11] = test system: HaCaT keratinocytes and MCF10A breast epithelial cells; conditions: 3, 10 or 30 μM, 3 days; Beauvais et al. 2016; cited from earlier work
[12] = test system: angiogenesis in the mouse cornea; conditions: induced by FGF in the mouse cornea; Beauvais et al., 2009; cited from earlier work
[13] = test system: CAG myeloma, mouse M21 melanoma, human microvascular endothelial and Jurkat T-lymphoma cells; test: Cell adhesion to VCAM-1; type: cell-based; conditions: 2 hr, 30 μM
Protocol: (§2) FIGS. 11A, 11B, 11C, and 11D. […] 11A. CAG myeloma, mouse M21 melanoma, human microvascular endothelial and Jurkat T-lymphoma cells are plated on VCAM-1 for 2 hr in the presence or absence of 30 μM SSTNVLA4 or VLA-4 blocking antibody as a test of specificity. Numbers of adherent cells are quantified and expressed as a percentage of control, untreated cells in FIG. 11B. 11C. Cells are plated on top of filters coated with VCAM-1 allowed to migrate for 16 hr in the presence or absence of 30 μM SSTNVLA4. Cells accumulating on the bottom of the filters are visualized by staining. 11D. Expression level of Sdc1 and VLA-4 are shown by Western blot staining of mouse natural killer (NK) and T-cells harvested from mouse spleens.

[14] = test system: myeloma, melanoma, microvascular endothelial and T-lymphoma cells; test: Migration through filters coated with VCAM-1; type: cell-based; conditions: 16 hr, 30 μM
Protocol: as §2

CAG myeloma cells = CAG myeloma cells plated on FN for 2.5 hr; 0, 0.3, 3, or 30 μM; modified from Jung et al. 2016; cited from earlier work
HMEC-1 = conditions: 16 h, 30 μM; modified from Jung et al. 2016; cited from earlier work
VEGFR2 = conditions: 2 h on IIICS, 10 μM; modified from Jung et al. 2016; cited from earlier work
HMEC-1 cells = conditions: 20 ng/ml VEGF, 30 μM, 24 h; modified from Jung et al. 2016; cited from earlier work

Q: What does the source list for N=C(N)NCCC[C@H](NC(=O)CN)C(=O)NCC(=O)N[C@@H](CC(=O)O)C(=O)N[C@@H](CO)C(=O)N1CCC[C@H]1C(=O)O [GRGDSP]?
A: time to complete inactivation ([1]; control peptide, tested by endothelial cell adhesion to fibronectin): ≤ 8 h; stability in serum (in words) [1]: destroyed within a matter of a few hr

Q: For “LPAGEGPKEGEAVVLPEVEPGLTAREQDFTFETSGENTA [SSTNI/V]”, which “stability in serum (in words)” value [1] is on record?
A: highly stable; also recorded: same remarkable stability

Q: What about the “stability (activity retained)” value [1] of the same compound?
A: 100%

Q: For “SSTNIGF1R: peptide mimetic of the Sdc1 docking site (aa93-120 in human Sdc1) that captures IGF-1R and the αvβ3 or αvβ5 integrin”, which “stability (activity retained)” value [1] is on record?
A: 100%

Q: What about the “stability (activity retained)” value [2] of the same compound?
A: 100%

Q: And the “stability (activity retained)” value [3]?
A: 100%

Q: What about the “block of melanoma cell invasion” value [4] of the same compound?
A: partially block; also recorded: partial block

Q: And the melanoma cell survival [5]?
A: killed; also recorded: blocked

Q: And the “stability when incubated in plasma” value [6]?
A: remarkable stability

Q: What about the half-life in vivo [7] of the same compound?
A: ca. 27 hr

Q: What about the “growth of myeloma tumors” value [8] of the same compound?
A: INHIBITS GROWTH

Q: What about the ASK-1 activation [9] of the same compound?
A: ACTIVATES

Q: What about the “growth of carcinoma cells” value [10] of the same compound?
A: BLOCKS THE GROWTH

Q: And the “growth of normal epithelial cells” value [11]?
A: not affected and NOT

Q: What about the “abnormal angiogenesis in vivo” value [12] of the same compound?
A: block abnormal angiogenesis

Q: With “SSTNVLA4: peptide mimetic of the VLA-4 binding site of Sdc1, comprised of amino acids 210-233 (or 210-221) (DFTFETSGENTAVVAVEPDRRNQS)” as the compound, how does the “stability (activity retained)” value [1] read?
A: 100%

Q: And the “block of melanoma cell invasion” value [4]?
A: partially block; also recorded: partial block

Q: What about the melanoma cell survival [5] of the same compound?
A: only a minimal effect; also recorded: only minimally

Q: And the “binding of cells to the VLA-4 ligand VCAM-1” value [13]?
A: prevented

Q: And the “invasion of cells through VCAM-1-coated filters” value [14]?
A: BLOCKS THE INVASION

Q: What about the “invasion of cells through VCAM-1-coated filters” value ([14]; listed as SSTNVLA-4) of the same compound?
A: prevented

Q: And the “VLA-4-mediated adhesion of myeloma cells” value (CAG myeloma cells)?
A: displaced from VLA-4 ligands; also recorded: BLOCKS

Q: And the endothelial cell invasion (HMEC-1)?
A: BLOCKS

Q: And the VEGFR2 activation (VEGFR2)?
A: BLOCKS

Q: What about the tube formation (HMEC-1 cells) of the same compound?
A: prevents the angiogenic phenotype; also recorded: BLOCKS
